{"source": "ChEMBL document CHEMBL3044547", "about": "“2-Substituted-8-methyl-3,6-dihydroimidazo[4,5-c]pyrazolo[3,4-e]pyridazine as an anti-inflammatory agent” (2011)", "format_in_all_cases": "functional", "key": {"Rattus norvegicus [1]": {"tested_on": "Rattus norvegicus", "assay": "Anti-inflammatory activity in Rattus norvegicus albino (rat) assessed as carageenaan-induced paw edema at 100 mg/kg, po administered 1 hr prior to carageenaan-challenge measured at 180 min relative to control (reference value: 22.3%)"}, "Rattus norvegicus [2]": {"tested_on": "Rattus norvegicus", "assay": "Anti-inflammatory activity in Rattus norvegicus albino (rat) assessed as carageenaan-induced paw edema at 100 mg/kg, po administered 1 hr prior to carageenaan-challenge measured at 90 min relative to control (reference value: 38.7%)"}, "Rattus norvegicus [3]": {"tested_on": "Rattus norvegicus", "assay": "Anti-inflammatory activity against carageenaan-induced paw edema in Rattus norvegicus albino (rat) at 100 mg/kg, po administered 1 hr prior to carageenaan-challenge measured up to 3 hr"}, "Rattus norvegicus [4]": {"tested_on": "Rattus norvegicus", "assay": "Anti-inflammatory activity in Rattus norvegicus albino (rat) assessed as carageenaan-induced paw edema at 100 mg/kg, po administered 1 hr prior to carageenaan-challenge measured at 30 min relative to control (reference value: 30.1%)"}, "Rattus norvegicus [5]": {"tested_on": "Rattus norvegicus", "assay": "Anti-inflammatory activity in Rattus norvegicus albino (rat) assessed as carageenaan-induced paw edema at 100 mg/kg, po administered 1 hr prior to carageenaan-challenge measured at 90 min (reference value: 100%)"}, "Rattus norvegicus [6]": {"tested_on": "Rattus norvegicus", "assay": "Anti-inflammatory activity in Rattus norvegicus albino (rat) assessed as carageenaan-induced paw edema at 100 mg/kg, po administered 1 hr prior to carageenaan-challenge measured at 120 min (reference value: 100%)"}, "Rattus norvegicus [7]": {"tested_on": "Rattus norvegicus", "assay": "Anti-inflammatory activity in Rattus norvegicus albino (rat) assessed as carageenaan-induced paw edema at 100 mg/kg, po administered 1 hr prior to carageenaan-challenge measured at 30 min (reference value: 100%)"}}}
{"smiles": "Cc1n[nH]c2nnc3nc(-c4ccccc4)[nH]c3c12", "values": [{"measurement": "Activity", "setting": "Rattus norvegicus [1]", "result": 14.9, "unit": "%"}, {"measurement": "Activity", "setting": "Rattus norvegicus [2]", "result": 23.4, "unit": "%"}, {"measurement": "Activity", "setting": "Rattus norvegicus [3]", "result": 30, "unit": "%"}, {"measurement": "Activity", "setting": "Rattus norvegicus [4]", "result": 14.1, "unit": "%"}]}
{"smiles": "Cc1n[nH]c2nnc3nc(/C=C\\c4ccccc4)[nH]c3c12", "values": [{"measurement": "Activity", "setting": "Rattus norvegicus [1]", "result": 0.4, "unit": "%"}, {"measurement": "Activity", "setting": "Rattus norvegicus [2]", "result": 6.2, "unit": "%"}, {"measurement": "Activity", "setting": "Rattus norvegicus [3]", "result": 35, "unit": "%"}, {"measurement": "Activity", "setting": "Rattus norvegicus [4]", "result": 3.9, "unit": "%"}]}
{"smiles": "Cc1n[nH]c2nnc3nc(-c4ccccc4C(=O)O)[nH]c3c12", "values": [{"measurement": "Activity", "setting": "Rattus norvegicus [1]", "result": 20.6, "unit": "%"}, {"measurement": "Activity", "setting": "Rattus norvegicus [2]", "result": 23.3, "unit": "%"}, {"measurement": "Activity", "setting": "Rattus norvegicus [3]", "result": 41, "unit": "%"}, {"measurement": "Activity", "setting": "Rattus norvegicus [4]", "result": 15.1, "unit": "%"}]}
{"smiles": "Cc1n[nH]c2nnc3nc(CCC(=O)O)[nH]c3c12", "values": [{"measurement": "Activity", "setting": "Rattus norvegicus [1]", "result": 21.4, "unit": "%"}, {"measurement": "Activity", "setting": "Rattus norvegicus [2]", "result": 18.4, "unit": "%"}, {"measurement": "Activity", "setting": "Rattus norvegicus [3]", "result": 33, "unit": "%"}, {"measurement": "Activity", "setting": "Rattus norvegicus [4]", "result": 6.5, "unit": "%"}]}
{"smiles": "Cc1n[nH]c2nnc3nc(CCCCC(=O)O)[nH]c3c12", "values": [{"measurement": "Activity", "setting": "Rattus norvegicus [1]", "result": 33.6, "unit": "%"}, {"measurement": "Activity", "setting": "Rattus norvegicus [2]", "result": 46.5, "unit": "%"}, {"measurement": "Activity", "setting": "Rattus norvegicus [3]", "result": 31, "unit": "%"}, {"measurement": "Activity", "setting": "Rattus norvegicus [4]", "result": 33.9, "unit": "%"}]}
{"smiles": "CC(C)Cc1ccc(C(C)C(=O)O)cc1", "note": "(centres undefined) [IBUPROFEN]", "values": [{"measurement": "Activity", "setting": "Rattus norvegicus [5]", "result": 108, "unit": "%"}, {"measurement": "Activity", "setting": "Rattus norvegicus [3]", "result": 49, "unit": "%"}, {"measurement": "Activity", "setting": "Rattus norvegicus [6]", "result": 11.6, "unit": "%"}, {"measurement": "Activity", "setting": "Rattus norvegicus [7]", "result": 101, "unit": "%"}]}
